Source: patent US20080260636A1, “STABILIZATION OF RADIONUCLIDE-CONTAINING COMPOSITIONS” (priority 2001, published 2008)
Where a SMILES comes first, the peptide text is derived from it. [ ]: non-standard residue; d: D form. The star is where a group is joined. X1 = NCCCC[C@H](NC(=O)[C@H](CS)NC(=O)[C@H](CCCCN)NC(=O)[C@@H](N)CNC(=O)C*)C(N)=O; NMeF = CN[C@@H](Cc1ccccc1)C(=O)O; hCys = N[C@@H](CCS)C(=O)O

How the values were obtained:
[1] = RCP of single vial kit (iodide formulated with targeting agent) reconstituted with Tc 99m; assay type: physicochemical
Experimental: (§1) KI affords stability to Tc-99m depreotide even when an oxidant (i.e. nitrate) is present in the eluate. Potassium iodide is well tolerated in humans unlike other stabilizing agents such as methionine or trolox. Methods for determining the RCP value are known in the art such as described in Cancer Res. (1998), May 1, 58(9):1850-1859, and J. Nucl. Med. (1996), June, 37(6): 1016-1022.
(§2) Further examples were conducted to show the stabilizing effect of the iodide ion for other complexes under varying conditions and with varying amounts and sources (KI and NaI) of iodide ion.

[2] = RCP of 2-vial kit (iodide added to formulated kit, then Tc-99m added); assay type: physicochemical; conditions: 2-vials
Experimental: as §1, §2

% RCP ([2]; KI 4 mg, 5 h): 94%
% RCP ([2]; KI 6 mg, 5 h): 94%
% RCP ([2]; KI 10 mg, 6 h): 95%
Compound: CC(C)[C@@H]1NC(=O)[C@H](CCCCN)NC(=O)[C@@H](Cc2c[nH]c3ccccc23)NC(=O)[C@H](Cc2ccc(O)cc2)NC(=O)[C@H](Cc2ccccc2)N(C)C(=O)[C@H](CCSCC(=O)NC[C@H](N)C(=O)N[C@@H](CCCCN)C(=O)N[C@@H](CS)C(=O)N[C@@H](CCCCN)C(N)=O)NC1=O [Depreotide, depreotide] (cyclo([hCys](X1)[NMeF]Y[dW]KV))
% RCP ([1]; KI 4 mg, 5 h): 89%
% RCP ([1]; KI 5 mg, 6 h): 93%
% RCP ([1]; KI 6 mg, 5 h): 95%
% RCP ([1]; NaI 8 mg, 6 h): 91%
% RCP ([1]; NaI 10 mg, 5 h): 93%
